Results published in patent US20060093596A1, “Genomic approach to identification of novel broad-spectrum antimicrobial peptides from bony fish” (priority 2002, published 2006).
Where no end group is shown, it is not given here.

How the values were obtained:
[1] = system: Escherichia coli UB1005 (C498); assay type: cell-based; conditions: lowest peptide concentration inhibiting growth by at least 50%; Mueller-Hinton broth
Experimental: (§1) Most non-fish bacterial strains as well as Candida albicans were grown at 37° C. in Mueller-Hinton Broth (MHB; Difco Laboratories, Detroit), while the fish bacteria were maintained at 16° C. in Tryptic Soy Broth (TSB; Difco, 5g/l NaCl). All strains were stored at −70° C. until they were thawed for use and sub-cultured daily. The following strains, Pseudomonas aeruginosa K799 (parent of Z61), Pseudomonas aeruginosa Z61 (antibiotic supersusceptible), Salmonella typhimurium 14028s (parent of MS7953s), Salmonella typhimurium MS7953s (defensin supersusceptible), as well as Staphylococcus epidermidis (human clinical isolates) and methicillin-resistant Staphylococcus aureus (MRSA; isolated by Dr. A. Chow, University of British Columbia) have been kindly donated by Prof R. E. W. Hancock, University of British Columbia.
(§2) The activities of the antimicrobial peptides were determined as minimal inhibitory concentrations (MICs) using the microtitre broth dilution method of Amsterdam (Amsterdam, 1996), as modified by Wu and Hancock (1999). Serial dilutions of the peptide were made in water in 96-well polypropylene (Costar, Coming Incorporated, Coming, New York) microtiter plates. Bacteria or C. albicans were grown overnight to mid-logarithmic phase as described above, and diluted to give a final inoculum size of 10^6 cfu/ml. A suspension of bacteria or yeast was added to each well of a 96 well plate and incubated overnight at the appropriate temperature. […] Three repeats of each MIC determination were performed.

[2] = system: Aeromonas salmonicida 99-1, A449
Experimental: (§3) Most non-fish bacterial strains as well as Candida albicans were grown at 37° C. in Mueller-Hinton Broth (MHB; Difco Laboratories, Detroit), while the fish bacteria were maintained at 16° C. in Tryptic Soy Broth (TSB; Difco, 5g/l NaCl).
(§4) Two field isolates of the salmonid pathogen Aeromonas salmonicida are from the IMB strain collection.
as §2

[3] = system: Candida albicans C627, CALB105; conditions: C627, CALB105
Experimental: as §1, §2

[4] = system: Escherichia coli DC2 (C500, outer membrane-permeable mutant); assay type: cell-based; conditions: lowest peptide concentration inhibiting growth by at least 50%; Mueller-Hinton broth
Experimental: as §1, §2

[5] = system: Pseudomonas aeruginosa K799 (H187); assay type: cell-based; conditions: lowest peptide concentration inhibiting growth by at least 50%; Mueller-Hinton broth
Experimental: as §1, §2

[6] = system: methicillin-resistant Staphylococcus aureus (MRSA) C623, SAP017; conditions: methicillin-resistant C623, SAP017
Experimental: as §1, §2

[7] = system: Escherichia coli C786, CGSC4908; assay type: cell-based; conditions: lowest peptide concentration inhibiting growth by at least 50%; supplemented Mueller-Hinton broth
Experimental: All strains were stored at −70° C. until they were thawed for use and sub-cultured daily.
Escherichia coli strain CGSC 4908 (his-67, thyA43, pyr-37), auxotrophic for thymidine, uridine, and L-histidine (Cohen et al., 1963) was kindly supplied, free of charge, by the E.coli Genetic Stock Centre (Yale University, New Haven, Conn.). MHB supplemented with 5 mg/L thymidine, 10 mg/L uridine and 20 mg/L L-histidine (Sigma Chemical Co., St. Louis, Mo.), was used to grow E.coli CGSC 4908 unless otherwise specified.
The activities of the antimicrobial peptides were determined as minimal inhibitory concentrations (MICs) using the microtitre broth dilution method of Amsterdam (Amsterdam, 1996), as modified by Wu and Hancock (1999). Serial dilutions of the peptide were made in water in 96-well polypropylene (Costar, Coming Incorporated, Coming, New York) microtiter plates. Bacteria or C. albicans were grown overnight to mid-logarithmic phase as described above, and diluted to give a final inoculum size of 10^6 cfu/ml. A suspension of bacteria or yeast was added to each well of a 96 well plate and incubated overnight at the appropriate temperature. In the case of E. coli CGSC 4908, supplemented MHB was used. […] Three repeats of each MIC determination were performed.

[8] = system: Salmonella enterica s. Typhimurium MS4252S (C610, supersusceptible strain); assay type: cell-based; conditions: lowest peptide concentration inhibiting growth by at least 50%; Mueller-Hinton broth
Experimental: as §1, §2

[9] = system: Salmonella enterica s. Typhimurium 14028S (C587); assay type: cell-based; conditions: lowest peptide concentration inhibiting growth by at least 50%; Mueller-Hinton broth
Experimental: as §1, §2

[10] = system: Pseudomonas aeruginosa Z61 (H188, supersusceptible strain); assay type: cell-based; conditions: lowest peptide concentration inhibiting growth by at least 50%; Mueller-Hinton broth
Experimental: as §1, §2

[11] = system: Staphylococcus epidermidis C621 (clinical isolate)
Experimental: as §1, §2

[12] = system: Aeromonas salmonicida 97-4
Experimental: as §3, §4, §2

[13] = system: bacterial pathogens and C. albicans; experiment: Spectrum of antimicrobial activity (MIC panel, overall); assay type: cell-based; conditions: summary of MIC results against bacteria and C. albicans
Experimental: Three repeats of each MIC determination were performed.
The minimal inhibitory concentrations of the chemically produced peptides against a wide range of baterial pathogens and C. albicans were determined and are shown in Table 9.

Substance | Minimal inhibitory concentration, E. coli UB1005 [1] [µg/mL] | Minimal inhibitory concentration, A. sal 99-1 [2] [µg/mL] | Minimal inhibitory concentration, C. alb C627 [3] [µg/mL] | Minimal inhibitory concentration, E. coli DC2 [4] [µg/mL] | Minimal inhibitory concentration, P. aeru K799 [5] [µg/mL] | Minimal inhibitory concentration, MRSA C623 [6] [µg/mL] | Minimal inhibitory concentration, E. coli C786 [7] [µg/mL] | Minimal inhibitory concentration, S. typh MS4252s [8] [µg/mL] | Minimal inhibitory concentration, S. typh 14028s [9] [µg/mL] | Minimal inhibitory concentration, P. aeru Z61 [10] [µg/mL] | Minimal inhibitory concentration, S. epi C621 [11] [µg/mL] | Minimal inhibitory concentration, A. sal 97-4 [12] [µg/mL] | antimicrobial activity, overall (in words) [13]
AGWGSIFKHIFKAGKFIHGAIQAHND-NH2 [NRC-14] | 16 | 32 | >64 | 16 | 32 | 16 | 16 | 16 | >64 | 8 | 16 | 16 | –
FFRLLFHGVHHGGGYLNAA-NH2 [NRC-9] | >64 | >64 | >64 | >64 | >64 | >64 | 64 | 64 | >64 | 64 | >64 | >64 | poor or no observed activities
FFRLLFHGVHHVGKIKPRA-NH2 [NRC-10] | 32 | >64 | >64 | 32 | 32 | 64 | 32 | 16 | >64 | 8 | 32 | 32 | poor or no observed activities
FLGALIKGAIHGGRFIHGMIQNHH-NH2 [NRC-5] | 64 | >64 | >64 | >64 | >64 | 32 | 64 | 64 | >64 | 32 | 32 | >64 | –
FLGLLFHGVHHVGKWIHGLIHGHH-NH2 [NRC-19] | 16 | 64 | 64 | 32 | 32 | 8 | 32 | 16 | 64 | 8 | 8 | >64 | –
GFLGILFHGVHHGRKKALHMNSERRS [NRC-20] | – | >64 | >64 | – | – | >64 | – | – | – | – | >64 | >64 | –
GRRKRKWLRRIGKGVKIIGGAALDHL-NH2 [NRC-3] | 8 | 2 | 4 | 2 | 2 | 8 | 2 | 2 | 8 | 1 | 8 | 4 | –
GWGSFFKKAAHVGKHVGKAALTHYL-NH2 [NRC-4] | 4 | 2 | 8 | 2 | 8 | 8 | 2 | 2 | 16 | 4 | 8 | 2 | –
GWGSIFKHGRHAAKHIGHAAVNHYL-NH2 [NRC-6] | 4 | 4 | 32 | 2 | 16 | 32 | 4 | 4 | 64 | 4 | >64 | 4 | –
GWKKWFTKGERLSQRHFA [NRC-18] | – | >64 | >64 | – | – | >64 | – | – | – | – | >64 | 128 | –
GWKKWLRKGAKHLGQAAIK-NH2 [NRC-16] | 2 | 2 | 8 | 0.5 | 4 | 32 | 1 | 0.5 | 16 | 1 | 16 | 1 | broad spectrum of antimicrobial activity
GWKKWLRKGAKHLGQAAIKGLAS [NRC-17] | – | 2 | 8 | – | – | 16 | – | – | – | – | 32 | 1 | broad spectrum of antimicrobial activity
GWKSVFRKAKKVGKTVGGLALDHYL-NH2 [NRC-11] | 16 | 8 | 32 | 4 | 32 | >64 | 4 | 4 | 32 | 4 | 64 | 8 | broad spectrum of antimicrobial activity
RSTEDIIKSISGGGFLNAMNA-NH2 [NRC-8] | >64 | >64 | >64 | >64 | >64 | >64 | >64 | >64 | >64 | >64 | >64 | >64 | poor or no observed activities
